Patent US10280159B2 (AbbVie Deutschland GmbH & Co. KG, priority 2015, dated 2019)
Read-outs that look alike come from different tables or passages of the source.

How the values were obtained:
Assay type in all cases: cell-based
human S1PR5 = target: T1, human S1PR5 (Homo sapiens, UniProt Q9H228); assay: Intracellular Ca2+ release (FLIPR) agonist potency, S1P5; details: recombinant CHO-K1 cells expressing human S1PR5, aequorin, Gq/i5, Calcium 5 FLIPR
T1 construct: host or cells: CHO-K1
Description: (§1) Agonistic activity was measured using the method described below.
(§2) Intracellular Ca^2+ Release
(§3) Agonist potency and intrinsic activity was assessed by measurement of intracellular Ca^2+ release. Recombinant CHO-K1 cells (Euroscreen, Brussels, Belgium) expressing human S1PR5, S1PR1, S1PR3 or S1PR4 receptors, aequorin, and GTP binding protein Gq/i5 were cultured using a medium containing nutrient mixture F-12 Ham (Sigma-Aldrich) with 10% FBS, and 100 μg/mL gentamicin and equilibrated at 5% CO2.
(§4) Phospho-fingolimod was used as positive control. Antagonists were pre-incubated for 10 min with cells before addition of the agonist (phospho-fingolimod at EC80). Measurements were performed using a fluorometric imaging plate reader FLIPR®tetra (Molecular Devices). Agonist at the human S1P receptors were characterized by deducing EC50 (potency) values from a nonlinear fit to the measured fluorescence raw data after normalization to the reference agonist (phospho-fingolimod) curve.

human S1PR1 = target: T2, human S1PR1 (Homo sapiens, UniProt P21453); assay: Intracellular Ca2+ release (FLIPR) agonist potency, S1P1
T2 construct: host or cells: CHO-K1
Description: as §1, §2, §3, §4

human S1PR4 = target: T3, human S1PR4 (Homo sapiens, UniProt O95977); assay: Intracellular Ca2+ release (FLIPR) agonist potency, S1P4
T3 construct: host or cells: CHO-K1
T3 sequence (O95977 1-384): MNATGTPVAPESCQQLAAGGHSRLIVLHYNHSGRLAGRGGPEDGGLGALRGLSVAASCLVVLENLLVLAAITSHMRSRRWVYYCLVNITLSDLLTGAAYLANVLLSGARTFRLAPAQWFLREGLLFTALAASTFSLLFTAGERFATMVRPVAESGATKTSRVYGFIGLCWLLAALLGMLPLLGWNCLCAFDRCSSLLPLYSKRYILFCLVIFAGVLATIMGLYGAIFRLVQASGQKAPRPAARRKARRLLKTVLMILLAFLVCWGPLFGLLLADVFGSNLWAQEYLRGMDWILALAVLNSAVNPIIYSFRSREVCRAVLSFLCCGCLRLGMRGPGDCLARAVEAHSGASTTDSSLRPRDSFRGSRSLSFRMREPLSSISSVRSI
Description: as §1, §2, §3, §4

[1] = recombinant CHO-K1 cells expressing human S1PR1, aequorin, Gq/i5, Calcium 5 FLIPR, read-out: S1P1 EC50
[2] = recombinant CHO-K1 cells expressing human S1PR4, aequorin, Gq/i5, Calcium 5 FLIPR, read-out: S1P4 EC50

T1 sequence (Q9H228 whole entry): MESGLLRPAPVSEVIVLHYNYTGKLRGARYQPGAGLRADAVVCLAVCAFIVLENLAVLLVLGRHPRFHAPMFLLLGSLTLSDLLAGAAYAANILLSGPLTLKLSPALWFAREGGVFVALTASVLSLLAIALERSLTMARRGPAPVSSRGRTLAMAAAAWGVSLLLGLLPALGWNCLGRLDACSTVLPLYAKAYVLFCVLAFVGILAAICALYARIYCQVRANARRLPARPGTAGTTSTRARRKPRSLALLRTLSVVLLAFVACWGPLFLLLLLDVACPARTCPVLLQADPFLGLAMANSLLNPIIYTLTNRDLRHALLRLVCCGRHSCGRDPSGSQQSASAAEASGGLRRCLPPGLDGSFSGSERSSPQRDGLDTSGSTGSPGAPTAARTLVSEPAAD
T2 sequence (P21453 whole entry): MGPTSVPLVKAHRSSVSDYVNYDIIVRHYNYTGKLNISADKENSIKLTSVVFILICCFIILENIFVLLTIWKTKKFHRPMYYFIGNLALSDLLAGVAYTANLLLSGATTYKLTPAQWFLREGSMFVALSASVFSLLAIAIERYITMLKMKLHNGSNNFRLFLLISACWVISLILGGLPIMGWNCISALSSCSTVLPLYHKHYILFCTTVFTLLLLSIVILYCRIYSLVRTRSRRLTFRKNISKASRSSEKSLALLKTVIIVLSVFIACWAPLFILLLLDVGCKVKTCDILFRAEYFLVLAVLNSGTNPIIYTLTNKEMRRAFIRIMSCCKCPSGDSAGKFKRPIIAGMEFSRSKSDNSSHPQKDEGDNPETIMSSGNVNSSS

Compound	EC50 (human S1PR5; read-out: S1P5 EC50 range) [µM]	EC50 (human S1PR1; [1]) [µM]	EC50 (human S1PR4; [2]) [µM]	EC50 (human S1PR5; S1P5 EC50 range) [µM]	EC50 (human S1PR1) [µM]	EC50 (human S1PR4) [µM]
COc1cc(COc2ccc3c(c2)OCC(N2CC(C(=O)O)C2)C3)ccc1F (stereo not drawn) [Compound 92, 1-[7-[(4-fluoro-3-methoxy-phenyl)methoxy]chroman-3-yl]azetidine-3-carboxylic acid]	1 to 10	> 1	> 1	–	–	–
COc1ccc(COc2ccc3c(c2)OCC(N2CC(C(=O)O)C2)C3)cc1F (stereo not drawn) [Compound 95, 1-[7-[(3-fluoro-4-methoxy-phenyl)methoxy]chroman-3-yl]azetidine-3-carboxylic acid]	1 to 10	> 1	> 1	–	–	–
O=C(O)C1(NC2COc3cc(OCc4c(Cl)cccc4Cl)ccc3C2)CCC1 (stereo not drawn) [Compound 119, 1-((7-((2,6-dichlorobenzyl)oxy)chroman-3-yl)amino)cyclobutane-1-carboxylic acid]	1 to 10	> 1	> 1	–	–	–
O=C(O)CNC1COc2cc(-c3ccc(OCc4cccc(F)c4F)cc3)ccc2C1 (stereo not drawn) [Compound 131, (7-(4-((2,3-difluorobenzyl)oxy)phenyl)chroman-3-yl)glycine]	< 0.01	< 1	> 1	–	–	–
CCc1cccc(F)c1COc1ccc2c(c1)OC[C@@H](NCc1cc(O)no1)C2 [Compound 136, (S)-5-(((7-((2-ethyl-6-fluorobenzyl)oxy)chroman-3-yl)amino)methyl)isoxazol-3-ol]	–	–	–	< 0.01	> 1	< 1
Cc1cc(COc2ccc3c(c2)OCC(N2CC(C(=O)O)C2)C3)ccc1F (stereo not drawn) [Compound 84, 1-[7-[(4-fluoro-3-methyl-phenyl)methoxy]chroman-3-yl]azetidine-3-carboxylic acid]	1 to 10	> 1	> 1	–	–	–
Cc1cccc(Cl)c1COc1ccc2c(c1)OCC(N1CC(C(=O)O)C1)C2 (stereo not drawn) [Compound 71, 1-(7-((2-chloro-6-methylbenzyl)oxy)chroman-3-yl)azetidine-3-carboxylic acid]	0.1 to 1	> 1	> 1	–	–	–
O=C(O)CCOC1CCc2cc(OCc3ccc(C(F)(F)F)cc3)ccc2C1 (stereo not drawn) [Compound 183, 3-[6-[[4-(trifluoromethyl)phenyl]methoxy]tetralin-2-yl]oxypropanoic acid]	1 to 10	> 1	> 1	–	–	–
O=C(O)C1CN(C2COc3cc(Oc4c(Cl)cccc4Cl)ccc3C2)C1 (stereo not drawn) [Compound 229, 1-[7-(2,6-dichlorophenoxy)chroman-3-yl]azetidine-3-carboxylic acid]	1 to 10	> 1	> 1	–	–	–
O=C(O)COC1COc2cc(OCc3c(F)ccc(Cl)c3F)ccc2C1 (stereo not drawn) [Compound 234, 2-((7-((3-chloro-2,6-difluorobenzyl)oxy)chroman-3-yl)oxy)acetic acid]	1 to 10	> 1	> 1	–	–	–
O=C(O)C1CN(C2COc3cc(OCCCCOc4cccc(F)c4)ccc3C2)C1 (stereo not drawn) [Compound 102, 1-[7-[4-(3-fluorophenoxy)butoxy]chroman-3-yl]azetidine-3-carboxylic acid]	1 to 10	> 1	> 1	–	–	–
O=C(O)C1CN(C2COc3cc(OCc4c(Cl)cccc4Cl)ccc3C2)C1 (single isomer, unassigned) [Compound 145, 1-(7-((2,6-dichlorobenzyl)oxy)chroman-3-yl)azetidine-3-carboxylic acid]	0.1 to 1	> 1	> 1	–	–	–
CCc1cccc(Cl)c1COc1ccc2c(c1)OCC(NC13CC(C(=O)O)(C1)C3)C2 (stereo not drawn) [Compound 121, 3-((7-((2-chloro-6-ethylbenzyl)oxy)chroman-3-yl)amino)bicyclo[1.1.1]pentane-1-carboxylic acid]	0.1 to 1	> 1	< 1	–	–	–
O=C(O)COC1CCc2cc(OCc3ccc(Cl)cc3Cl)ccc2C1 (stereo not drawn) [Compound 162, 2-[6-[(2,4-dichlorophenyl)methoxy]tetralin-2-yl]oxyacetic acid]	1 to 10	> 1	> 1	–	–	–
Cc1cc2c(cc1OCc1c(Cl)cccc1Cl)OCC(N1CC(C(=O)O)C1)C2 (stereo not drawn) [Compound 222, 1-[7-[(2,6-dichlorophenyl)methoxy]-6-methyl-chroman-3-yl]azetidine-3-carboxylic acid]	0.01 to 0.1	> 1	> 1	–	–	–
